Experimental data as given in ChEMBL document CHEMBL4602636, “Synthesis and in vitro antitumor evaluation of honokiol derivatives” (Bioorg Med Chem Lett, 2020).
Calls of active or inactive are those of the source. No cut-off for these calls is given here.

Key:
I10 [1] = experiment: Antiproliferative activity against mouse I10 cells assessed as growth inhibition after 72 hrs by MTT assay; type: functional, cell-based; settings: I10, 72 h
CNE2Z = experiment: Antiproliferative activity against human CNE2Z cells assessed as growth inhibition after 72 hrs by MTT assay; type: functional, cell-based
MCF7 = experiment: Antiproliferative activity against human MCF7 cells assessed as growth inhibition after 72 hrs by MTT assay; type: functional, cell-based; settings: MCF7, 72 h
I10 [2] = experiment: Downregulation of MMP-9 expression in mouse I10 cells at 20 uM after 24 hrs Western blot analysis; type: functional, cell-based
I10 [3] = experiment: Inhibition of cell migration in mouse I10 cells at 10 uM after 24 hrs under hypoxia condition by scratch wound healing assay; type: functional, cell-based
I10 [4] = experiment: Antiproliferative activity against mouse I10 cells at 20 uM after 24 to 72 hrs by MTT assay relative to control; type: functional
I10 [5] = experiment: Downregulation of MMP-2 expression in mouse I10 cells at 20 uM after 24 hrs Western blot analysis; type: functional, cell-based
I10 [6] = experiment: Antiinvasive activity against mouse I10 cells assessed as reduction in number of invaded cells at 2.5 uM after 36 hrs under hypoxia condition by crystal violet staining based transwell assay; type: functional, cell-based
I10 [7] = experiment: Downregulation of HIF1alpha expression in mouse I10 cells at 20 uM after 24 hrs Western blot analysis; type: functional, cell-based
I10 [8] = experiment: Antiproliferative activity against mouse I10 cells after 24 to 72 hrs by MTT assay; type: functional, cell-based
I10 [9] = experiment: Antiproliferative activity against mouse I10 cells at 2.5 to 20 uM by MTT assay; type: functional, cell-based; settings: TDE = time-dependent effect
I10 [10] = experiment: Inhibition of cell migration in mouse I10 cells after 24 hrs under hypoxia condition by scratch wound healing assay; type: functional, cell-based
I10 [11] = experiment: Antiinvasive activity against mouse I10 cells incubated for 36 hrs under hypoxia condition by crystal violet staining based transwell assay; type: functional, cell-based

Row | IC50 (MCF7) | SMILES | IC50 (I10 [1]) | IC50 (CNE2Z) | also measured
1 | 23.2 µM | C=CCc1ccc(O)c(-c2ccc(OCc3ccccc3)c(CC=C)c2)c1 | 29.8 µM | 30.3 µM | –
2 | 37.5 µM | C=CCc1ccc(OC)c(-c2ccc(O)c(CC=C)c2)c1 | 38 µM | 30.3 µM | –
3 | 14.7 µM | C=CCc1ccc(O)c(-c2ccc(OCc3ccc(Cl)cc3Cl)c(CC=C)c2)c1 | 10.4 µM | 11.3 µM | Activity (I10 [2]): Active; inhibition (I10 [3]): Active; Activity (I10 [4]): 100%; Activity (I10 [5]): Active; Activity (I10 [6]): Active; Activity (I10 [7]): Active; Activity (I10 [8]): Dose-dependent effect; Activity (I10 [9]): Tde; inhibition (I10 [10]): Dose-dependent effect; Activity (I10 [11]): Dose-dependent effect
4 | 41.8 µM | C=CCc1ccc(O)c(-c2ccc(O)c(CC=C)c2)c1 [HONOKIOL] | 31.1 µM | 31.3 µM | –
5 | 24.7 µM | C=CCc1ccc(O)c(-c2ccc(OC)c(CC=C)c2)c1 [METHYLHONOKIOL] | 26.5 µM | 25.5 µM | –
6 | > 50 µM | C=CCc1ccc(OCc2ccc(Cl)c(Cl)c2)c(-c2ccc(OCc3ccc(Cl)c(Cl)c3)c(CC=C)c2)c1 | > 50 µM | > 50 µM | –
7 | 27.4 µM | C=CCc1ccc(OCc2ccc(Cl)cc2Cl)c(-c2ccc(O)c(CC=C)c2)c1 | 21.1 µM | 24.2 µM | –
8 | > 50 µM | C=CCc1ccc(OCc2c(Cl)cccc2Cl)c(-c2ccc(OCc3c(Cl)cccc3Cl)c(CC=C)c2)c1 | > 50 µM | > 50 µM | –
9 | 11.5 µM | C=CCc1ccc(O)c(-c2ccc(OCc3c(Cl)cccc3Cl)c(CC=C)c2)c1 | 16.6 µM | 16.4 µM | –
10 | 19.4 µM | C=CCc1ccc(OCc2c(Cl)cccc2Cl)c(-c2ccc(O)c(CC=C)c2)c1 | 17.2 µM | 19.9 µM | –
11 | 17.5 µM | C=CCc1ccc(OCc2ccc(Cl)c(Cl)c2)c(-c2ccc(O)c(CC=C)c2)c1 | 12.2 µM | 14.2 µM | –
12 | 22.3 µM | C=CCc1ccc(OCc2ccccc2)c(-c2ccc(O)c(CC=C)c2)c1 | 21.8 µM | 24 µM | –
13 | > 50 µM | C=CCc1ccc(OCc2ccccc2)c(-c2ccc(OCc3ccccc3)c(CC=C)c2)c1 | > 50 µM | > 50 µM | –
14 | > 50 µM | C=CCc1ccc(OCc2ccc(Cl)cc2Cl)c(-c2ccc(OCc3ccc(Cl)cc3Cl)c(CC=C)c2)c1 | > 50 µM | > 50 µM | –
15 | > 50 µM | C=CCc1ccc(OC)c(-c2ccc(OC)c(CC=C)c2)c1 | > 50 µM | > 50 µM | –
16 | > 50 µM | C=CCc1ccc(OCC)c(-c2ccc(OCC)c(CC=C)c2)c1 | > 50 µM | > 50 µM | –
17 | 15.3 µM | C=CCc1ccc(O)c(-c2ccc(OCc3ccc(Cl)c(Cl)c3)c(CC=C)c2)c1 | 12.3 µM | 17.8 µM | –

Row | SMILES | IC50 (MCF7) | IC50 (I10 [1]) | IC50 (CNE2Z) | also measured
18 | C=CCc1ccc(OCC)c(-c2ccc(O)c(CC=C)c2)c1 | 19.9 µM | 24.7 µM | 20.4 µM | –
19 | C=CCc1ccc(O)c(-c2ccc(OCC)c(CC=C)c2)c1 | 26.3 µM | 21.4 µM | 24.1 µM | –
